Source: US20230082989A1, “DEVICES AND METHODS FOR TREATING CANCER AND CARDIAC WASTING” (Nazzano Devices Limited, priority 2020, published 2023)
Like-named read-outs stand apart in the source and are kept apart here. Where no end group is shown, it is not given here.

Tests used:
[1] = test system: advanced cancer patients; experiment: Self-rated health / EQ5D5L index in advanced cancer patients receiving heart failure drugs, case series; format: in vivo, human; details: for Self-rated health: 1=very good, 5=very poor; for Symptom status, EQ5D5L Index: 1 best possible, 0 worst possible
Experimental: (§1) In some cases, SGLT2 inhibitors, Dapagliflozin or Empagliflozin can be used for treatment of type 2 diabetes, heart failure, or a combination thereof. Disclosed herein are methods comprising administering these drugs to advanced cancer patients to improve a heart muscle in these patients. We here describe 5 advanced cancer patients, who were treated with either an SGLT2 inhibitor, an ACE inhibitor, a beta-blocker or an Angiotensin receptor blocker, all of which are shown to be effective heart failure therapies.

[2] = test system: advanced cancer patients; experiment: Echocardiogram (LVEF, LV mass) in advanced cancer patients receiving heart failure drugs, case series; format: in vivo, human
Experimental: as §1

[3] = test system: advanced cancer patients; experiment: 24 h ECG recording (mean heart rate, SDNN, NSVT) in advanced cancer patients receiving heart failure drugs, case series; format: in vivo, human
Experimental: as §1

[4] = test system: advanced cancer patients; experiment: Hand grip strength, 4 meter walk and 6-minute walk test in advanced cancer patients receiving heart failure drugs, case series; format: in vivo, human
Experimental: as §1

[5] = test system: advanced cancer patients; experiment: Interpretation of case reports: protection from heart muscle wasting, NSVT and early death; format: in vivo, human
[6] = test system: advanced cancer patients; experiment: Survival follow-up of advanced cancer patients receiving heart failure drugs, case series; format: in vivo, human
[7] = test system: patients with advanced cancer; details: cited from earlier work
[8] = Case 6: Colorectal Cancer UICC stage 4, Candesartan 16 mg and Dapagliflozin 10 mg with co-medication
[9] = Case 9: Lung Cancer UICC stage 4, Candesartan 32 mg and Metoprolol 95 mg with co-medication
[10] = Case 12: Multiple Myeloma stage 3, Spironolactone 25 mg, Candesartan 32 mg and Candesartan 8 mg listed, with co-medication
[11] = Case 13: Lung cancer UICC stage 4B, Spironolactone 25 mg and Candesartan 32 mg with co-medication
[12] = Case 7: lymphoma Ann Arbor Stage 2A, Empagliflozin 10 mg with co-medication
[13] = Case 8: Pancreas Cancer UICC stage 4, Nebivolol 7.5 mg with co-medication
[14] = Case 10: Lymphoma Ann Arbor stage 4 E, Ramipril 2.5 mg with co-medication
[15] = Case 11: Lymphoma Ann Arbor stage 4 E, Ramipril 10 mg with co-medication
[16] = Case 14: Breast Cancer UICC stage 4, Spironolactone 25 mg with co-medication
[17] = Case A: pancreatic cancer metastasized to liver, Gemcitabine, pre-study vs post-study
[18] = Case B: gastrointestinal cancer metastasized to liver, Capecitabine
[19] = Case C: advanced mesothelioma, FOLFIRI
[20] = Case D: head & neck cancer metastasized to lungs, Cetuximab, pre-study vs post-study

## CCOc1nc2cccc(C(=O)O)c2n1Cc1ccc(-c2ccccc2-c2nnn[nH]2)cc1 [Candesartan]
[1]; [8]
  Self-rated health: 4
[1]; [9]
  Self-rated health: 2
[1]; [10]
  Symptom status, EQ5D5L Index: 0.887
[2]; [8]
  LV mass (echocardiogram): 247 gram
  LVEF (echocardiogram): 68%
[2]; [9]
  LV mass (echocardiogram): 326 gram
  LVEF (echocardiogram): 67%
[2]; [11]
  LV mass (echocardiogram): 148 gram
  LVEF (echocardiogram): 66%
[3]; [8]
  Heart rate variability SDNN (24 h ECG): 160 ms
  Mean heart rate (24 h ECG): 70 beats per minute
[3]; [10]
  Heart rate variability SDNN (24 h ECG): 112 ms
  Mean heart rate (24 h ECG): 69 beats per minute
[3]; [11]
  Heart rate variability SDNN (24 h ECG): 101 ms
[4]; [8]
  Distance in 6-minute walk test: 504 meters
  Hand grip strength: 46 kg
[4]; [9]
  Distance walked in 6 minutes: 440 meters
  Hand grip muscle strength: 43 kg
[4]; [10]
  Distance walked in 6 minutes: 527 meters
  Hand grip muscle strength: 47 kg
  Time to walk 4 meters: 2.5 s
[4]; [11]
  Hand grip muscle strength: 40 kg

## CCOc1ccc(Cc2cc([C@@H]3O[C@H](CO)[C@@H](O)[C@H](O)[C@H]3O)ccc2Cl)cc1 [Dapagliflozin]
[1]; [8]
  Self-rated health: 4
[2]; [8]
  LV mass (echocardiogram): 247 gram
  LVEF (echocardiogram): 68%
[3]; [8]
  Heart rate variability SDNN (24 h ECG): 160 ms
  Mean heart rate (24 h ECG): 70 beats per minute
[4]; [8]
  Distance in 6-minute walk test: 504 meters
  Hand grip strength: 46 kg

## OC[C@H]1O[C@@H](c2ccc(Cl)c(Cc3ccc(O[C@H]4CCOC4)cc3)c2)[C@H](O)[C@@H](O)[C@@H]1O [Empagliflozin]
[1]; [12]
  Self-rated health: 2
[5]; [12]
  Interpretation of the case: protected from heart muscle wasting, life-threatening non-sustained ventricular tachycardia and early death
[2]; [12]
  LV mass (echocardiogram): 365 gram
  LVEF (echocardiogram): 64%
[3]; [12]
  Heart rate variability SDNN (24 h ECG): 224 ms
  Mean heart rate (24 h ECG): 84 beats per minute
  Non-sustained ventricular tachycardia (24 h ECG): no non-sustained ventricular tachycardia
[6]; [12]
  Survival (still alive after): > 324 days
[4]; [12]
  Hand grip strength: 46
  Time to walk 4 meters: 3.5 s

## COCCc1ccc(OCC(O)CNC(C)C)cc1 (stereo not shown) [Metoprolol]
[1]; [9]
  Self-rated health: 2
[5]; [9]
  Interpretation of the case: protected from heart muscle wasting, life-threatening non-sustained ventricular tachycardia and early death
[2]; [9]
  LV mass (echocardiogram): 326 gram
  LVEF (echocardiogram): 67%
[3]; [9]
  Non-sustained ventricular tachycardia (24 h ECG): no non-sustained ventricular tachycardia
[4]; [9]
  Distance walked in 6 minutes: 440 meters
  Hand grip muscle strength: 43 kg

## OC(CNCC(O)C1CCc2cc(F)ccc2O1)C1CCc2cc(F)ccc2O1 (stereo not shown) [Nebivolol]
[1]; [13]
  Self-rated health: 3
[5]; [13]
  Interpretation of the case: protected from heart muscle wasting, life-threatening non-sustained ventricular tachycardia and early death
[2]; [13]
  LV mass (echocardiogram): 236 gram
  LVEF (echocardiogram): 65%
[3]; [13]
  Heart rate variability SDNN (24 h ECG): 124 ms
  Mean heart rate (24 h ECG): 62 beats per minute
  Non-sustained ventricular tachycardia (24 h ECG): no non-sustained ventricular tachycardia
[6]; [13]
  Survival (still alive after): > 337 days
[4]; [13]
  Hand grip muscle strength: 27 kg
  Time to walk 4 meters: 4.6 s

## CCOC(=O)[C@H](CCc1ccccc1)N[C@@H](C)C(=O)N1[C@H](C(=O)O)C[C@@H]2CCC[C@@H]21 [Ramipril]
[1]; [14]
  Self-rated health: 3
[1]; [15]
  Symptom status, EQ5D5L Index: 0.999
[5]; [14]
  Interpretation of the case: protected from heart muscle wasting, life-threatening non-sustained ventricular tachycardia and early death
[5]; [15]
  Interpretation of the case: protected from heart muscle wasting, life-threatening non-sustained ventricular tachycardia and early death
[2]; [14]
  LV mass (echocardiogram): 189 gram
  LVEF (echocardiogram): 63%
[2]; [15]
  LV mass (echocardiogram): 227 gram
  LVEF (echocardiogram): 67%
[3]; [14]
  Heart rate variability SDNN (24 h ECG): 95 ms
  Mean heart rate (24 h ECG): 64 beats per minute
  Non-sustained ventricular tachycardia (24 h ECG): no non-sustained ventricular tachycardia
[3]; [15]
  Heart rate variability SDNN (24 h ECG): 120 ms
  Mean heart rate (24 h ECG): 77 beats per minute
  Non-sustained ventricular tachycardia (24 h ECG): no non-sustained ventricular tachycardia
[6]; [14]
  Survival (still alive after): > 458 days
[6]; [15]
  Survival (still alive after): > 666 days
[4]; [14]
  Distance walked in 6 minutes: 440 meters
  Hand grip muscle strength: 29 kg
  Time to walk 4 meters: 3.5 s
[4]; [15]
  Hand grip muscle strength: 47 kg

## CC(=O)S[C@@H]1CC2=CC(=O)CC[C@]2(C)[C@H]2CC[C@@]3(C)[C@@H](CC[C@@]34CCC(=O)O4)[C@H]12 [Spironolactone]
[1]; [10]
  Symptom status, EQ5D5L Index: 0.887
[5]; [11]
  Interpretation of the case: protected from heart muscle wasting, life-threatening non-sustained ventricular tachycardia and early death
[5]; [16]
  Interpretation of the case: protected from heart muscle wasting, life-threatening non-sustained ventricular tachycardia and early death
[2]; [11]
  LV mass (echocardiogram): 148 gram
  LVEF (echocardiogram): 66%
[2]; [16]
  LV mass (echocardiogram): 233 gram
  LVEF (echocardiogram): 67%
[3]; [10]
  Heart rate variability SDNN (24 h ECG): 112 ms
  Mean heart rate (24 h ECG): 69 beats per minute
  Non-sustained ventricular tachycardia (24 h ECG): no non-sustained ventricular tachycardia
[3]; [11]
  Heart rate variability SDNN (24 h ECG): 101 ms
  Non-sustained ventricular tachycardia (24 h ECG): no non-sustained ventricular tachycardia
[3]; [16]
  Average heart rate (24 h ECG): 85 bpm
  Heart rate variability SDNN (24 h ECG): 142 ms
  Non-sustained ventricular tachycardia (24 h ECG): no non-sustained ventricular tachycardia
[6]; [16]
  Survival (still alive after): > 235 days
[4]; [10]
  Distance walked in 6 minutes: 527 meters
  Hand grip muscle strength: 47 kg
  Time to walk 4 meters: 2.5 s
[4]; [11]
  Hand grip muscle strength: 40 kg
[4]; [16]
  Hand grip muscle strength: 40 kg

## Ghrelin (GSSFLSPEHQRVQQRKESKKPPAKLQPR; ends and bridges not checked; UniProt Q9UBU3 24-51, looked up) [a gut-derived 28-amino acid peptide hormone]
[7]; [17]
  Change in muscle mass: no change
  Increase in muscle strength: 2%
  Increase in steps/day: 40%
[7]; [18]
  Adverse event: hospitalized for atrial fibrillation, which was an AE deemed unrelated to ghrelin
  Patient comment about using ghrelin: Feel more active
[7]; [19]
  Adverse event: increase in tumor pain, an AE deemed unrelated to ghrelin
  Patient opinion about using ghrelin: This is the first therapy which improves my well-being
  Survival: 62 days
[7]; Case C: advanced mesothelioma, FOLFIRI, pre-study vs post-study
  Decrease in muscle mass: 3%
[7]; [20]
  Change in muscle mass: no change
  Increase in muscle strength: 6%
  Increase in steps/day: 63%
